Test results taken from the supplement of paper PMC10307832.

Assays:
Assay in all cases: relative viability (nuclei count vs DMSO), 5 days (fraction); higher = more cells survive
Cediranib + OSI-027 = compound: COc1cc2c(Oc3ccc4[nH]c(C)cc4c3F)ncnc2cc1OCCCN1CCCC1 [Cediranib] + COc1cccc2cc(-c3nc([C@H]4CC[C@H](C(=O)O)CC4)n4ncnc(N)c34)[nH]c12 [OSI-027] (partner 0.5 µM)
How it was run: (§1)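 For relative viability, nuclei counts in treated wells were divided by those in vehicle wells. Lung cancer cell lines had been pin-tool dosed in 1536-well plates the day after seeding and cultured for 5 days, then fixed and stained in one step (final 0.05% Triton X-100, 1% formaldehyde, 1 ug/ml Hoechst) and imaged at 4×. Doses were one drug alone or a fixed anchor-drug dose plus five library-drug doses (not always all listed) in √10 steps, and values are duplicate-plate medians.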

Decitabine + OSI-027 = compound: Nc1ncn([C@H]2C[C@H](O)[C@@H](CO)O2)c(=O)n1 [Decitabine] + COc1cccc2cc(-c3nc([C@H]4CC[C@H](C(=O)O)CC4)n4ncnc(N)c34)[nH]c12 [OSI-027] (partner 0.5 µM)
How it was run: as §1

Halofuginone + OSI-027 = compound: O=C(C[C@H]1NCCC[C@@H]1O)Cn1cnc2cc(Br)c(Cl)cc2c1=O (racemic) [Halofuginone] + COc1cccc2cc(-c3nc([C@H]4CC[C@H](C(=O)O)CC4)n4ncnc(N)c34)[nH]c12 [OSI-027] (partner 0.5 µM)
How it was run: as §1

[1] = compound: O=C(C[C@H]1NCCC[C@@H]1O)Cn1cnc2cc(Br)c(Cl)cc2c1=O (racemic) [Halofuginone] + CCNC(=O)c1noc(-c2cc(C(C)C)c(O)cc2O)c1-c1ccc(CN2CCOCC2)cc1 [Luminespib] (partner 0.01 µM)
How it was run: as §1

Cell Line	relative viability (Cediranib + OSI-027; first compound 0.04 µM)	relative viability (Cediranib + OSI-027; first compound 0.1265 µM)	relative viability (Cediranib + OSI-027; first compound 0.4 µM)	relative viability (Cediranib + OSI-027; first compound 1.265 µM)	relative viability (Cediranib + OSI-027; first compound 4 µM)	relative viability (Decitabine + OSI-027; first compound 0.04 µM)	relative viability (Decitabine + OSI-027; first compound 0.1265 µM)	relative viability (Decitabine + OSI-027; first compound 0.4 µM)	relative viability (Decitabine + OSI-027; first compound 1.265 µM)	relative viability (Decitabine + OSI-027; first compound 4 µM)	relative viability (Halofuginone + OSI-027; first compound 0.001 µM)	relative viability (Halofuginone + OSI-027; first compound 0.003162 µM)	relative viability (Halofuginone + OSI-027; first compound 0.01 µM)	relative viability (Halofuginone + OSI-027; first compound 0.03162 µM)	relative viability (Halofuginone + OSI-027; first compound 0.1 µM)	relative viability ([1]; first compound 0.001 µM)	relative viability ([1]; first compound 0.003162 µM)	relative viability ([1]; first compound 0.01 µM)	relative viability ([1]; first compound 0.03162 µM)	relative viability ([1]; first compound 0.1 µM)
201T	0.945	0.841	0.671	0.717	0.692	0.72	0.681	0.62	0.464	0.403	0.755	0.775	0.713	0.474	0.256	1.06	1.04	1.03	1.08	0.866
A-427	0.515		0.339	0.361	0.405	0.266	0.324	0.26	0.213	0.246	0.472	0.483	0.385	0.445	0.419	1.08	0.934	0.913	0.818	0.733
ABC-1	0.447	0.651	0.532		0.437	0.554	0.387	0.492	0.424	0.37	0.413	0.454	0.504	0.601	0.417		0.793	0.518	0.225	0.377
BEN	0.308		0.28	0.311	0.286	0.297	0.315	0.273	0.295	0.289	0.341	0.287	0.299	0.288	0.247	0.203	0.348	0.45	0.322	0.14
CAL-12T	0.814	0.568	0.624	0.416	0.992	0.558	0.612		0.305	0.268	0.872	0.771	0.707	0.807	0.414	0.73	0.548	0.489	0.423	0.14
COR-L23	0.913	0.767	0.738	0.675	0.872	0.415	0.401	0.335	0.227	0.158	0.769	0.86	0.72	0.677	0.302	0.819	0.636	0.699	0.368	0.211
COR-L 105	0.6	0.904	0.553	0.552	0.601	0.425	0.581	0.65	0.526	0.585	0.667	0.637	0.603	0.656	0.466	0.668	0.606	0.694	0.639	0.532
ChaGo-K-1	0.441	0.363	0.535	0.572	0.615	0.493	0.483	0.299	0.32	0.41	0.537	0.605	0.528	0.537	0.501	0.683	0.712	0.713	0.563	0.563
EKVX	0.759	0.809	0.681	0.684	0.723	0.494	0.516	0.461	0.303	0.297	0.656	0.789	0.773	0.499	0.539	0.868	0.818	0.891	0.871	0.937
EMC-BAC-2	0.377	0.503	0.38	0.319	0.367	0.39	0.4	0.286	0.344	0.363	0.4	0.397	0.38	0.4	0.315	1.13	1.14	1.17	0.896	0.649
EPLC-272H	0.288		0.287		0.232		0.288	0.11	0.248	0.186	0.342	0.278	0.262	0.29	0.257	0.329	0.169	0.409	0.479	0.206
H3255	0.658		0.638	0.58	0.533		0.478	0.435	0.5	0.535	0.598	0.55	0.602	0.601	0.553	0.807	0.742	0.974	0.908	0.924
HARA	0.367		0.446	0.353	0.657	0.251	0.257	0.164	0.112	0.111	0.68	0.631	0.536	0.566	0.399	0.311	0.786	0.635	0.679	0.429
HCC-15	0.625		0.674	0.692	0.717	0.688	0.722	0.328	0.445	0.327	0.709	0.667	0.644	0.709	0.509	0.307	0.311	0.653	0.453	0.317
HCC-44			0.447	0.473	0.619		0.739	0.232	0.364	0.49	0.505	0.613	0.444	0.379	0.202	1.09	1.15	1	1	0.155
HCC-78	0.356	0.448	0.376	0.311	0.356	0.344	0.365	0.345	0.353	0.344	0.347	0.334	0.363	0.396	0.407					
HCC-366	0.933	0.877	0.841	0.84	1.07	0.859	0.915	0.485	0.253	0.176	1.33	1.02	0.857	0.892	0.567					

Cell Line	relative viability (Cediranib + OSI-027; first compound 0.04 µM)	relative viability (Cediranib + OSI-027; first compound 0.1265 µM)	relative viability (Cediranib + OSI-027; first compound 0.4 µM)	relative viability (Cediranib + OSI-027; first compound 1.265 µM)	relative viability (Cediranib + OSI-027; first compound 4 µM)	relative viability (Decitabine + OSI-027; first compound 0.04 µM)	relative viability (Decitabine + OSI-027; first compound 0.1265 µM)	relative viability (Decitabine + OSI-027; first compound 0.4 µM)	relative viability (Decitabine + OSI-027; first compound 1.265 µM)	relative viability (Decitabine + OSI-027; first compound 4 µM)	relative viability (Halofuginone + OSI-027; first compound 0.001 µM)	relative viability (Halofuginone + OSI-027; first compound 0.003162 µM)	relative viability (Halofuginone + OSI-027; first compound 0.01 µM)	relative viability (Halofuginone + OSI-027; first compound 0.03162 µM)	relative viability (Halofuginone + OSI-027; first compound 0.1 µM)	relative viability ([1]; first compound 0.001 µM)	relative viability ([1]; first compound 0.003162 µM)	relative viability ([1]; first compound 0.01 µM)	relative viability ([1]; first compound 0.03162 µM)	relative viability ([1]; first compound 0.1 µM)
HCC-827	0.751		0.737	0.74	0.671	0.129	0.37	0.311	0.202	0.27	0.746	0.783	0.76	0.902	0.742	0.453	0.473	0.478	0.705	0.504
HOP-62	0.78	0.813	0.771	0.677	0.791	0.613	0.601	0.272	0.23	0.167	0.782	0.803	0.826	0.727	0.576	0.817	0.96	0.902	0.921	0.818
LC-2-ad	0.874	0.731	0.821	0.762	0.835	0.738	0.705	0.663	0.457	0.479	0.903	0.888	0.746	0.889	0.608	1.08	1	0.848	1.01	0.326
LCLC-97TM1	0.605	0.332	0.518	0.508	0.566	0.244	0.295	0.188	0.229	0.11	0.674	0.612	0.597	0.566	0.358	0.741	0.801	0.905	0.791	0.854
LCLC-103H	0.469	0.501	0.474	0.467	0.504	0.406	0.472	0.462	0.376	0.376	0.474	0.447	0.446	0.428	0.451	0.948	1.1	0.968	0.989	0.805
LK-2	0.181	0.192	0.22	0.175	0.201	0.188	0.2	0.191	0.252	0.212	0.24	0.237	0.201	0.221	0.167	0.152	0.147	0.181	0.205	0.179
LOU-NH91	0.769	0.862	0.707	0.582	0.701	0.497	0.738	0.621	0.629	0.672	0.733	0.732	0.748	0.741	0.692	0.332	0.361	0.354	0.346	0.339
LU99A	0.281	0.314	0.305	0.286	0.288	0.307	0.291	0.319	0.255	0.293	0.36	0.32	0.281	0.288	0.254	0.244	0.281	0.238	0.239	0.174
LXF-289	0.667	0.641	0.689	0.77	0.79	0.646	0.617	0.361	0.31	0.23	0.762	0.885	0.819	0.785	0.542	0.664	0.701	0.699	0.763	0.317
NCI-H23	0.511		0.557	0.511	0.582	0.48	0.498	0.255	0.231	0.245	0.755	0.554	0.545	0.441	0.344	0.213	0.184	0.203	0.203	0.231
NCI-H322M	0.541	0.567	0.535	0.52	0.538	0.507	0.496	0.432	0.473	0.441	0.596	0.652	0.488	0.49	0.346	0.944	0.855	0.915	0.719	0.318
NCI-H358	0.812	0.967	0.683	0.609	0.845	0.372	0.254	0.2	0.113	0.12	0.972	0.836	0.664	0.267	0.107	0.306	0.455	0.229	0.205	0.154
NCI-H441	0.809		0.658	0.675	0.632	0.415	0.441	0.246	0.261	0.255	0.737	0.583	0.591	0.647	0.336	0.352	0.292	0.487	0.306	0.213
NCI-H460	0.852	0.684	0.573	0.605	0.613	0.603	0.848	0.598	0.308	0.215	0.715	0.728	0.614	0.557	0.131	0.0339	0.0272	0.0348	0.0271	0.0193
NCI-H520	0.403	0.239	0.211	0.202	0.226	0.309	0.242	0.234	0.215	0.21	0.311	0.3	0.258	0.321	0.199	0.232	0.241	0.185	0.206	0.236
NCI-H1648	0.284		0.259	0.272	0.246	0.266	0.236	0.264	0.267	0.26	0.247	0.217	0.242	0.275	0.262					
